Laboratory results reported in ChEMBL document CHEMBL2440087, “Novel complex crystal structure of prolyl hydroxylase domain-containing protein 2 (PHD2): 2,8-Diazaspiro[4.5]decan-1-ones as potent, orally bioavailable PHD2 inhibitors” (Bioorg Med Chem, 2013).

Assays:
Mus musculus [1] = test: Dose normalized AUC in C57BL/6 mouse at 10 mg/kg, po; format: ADME, organism-based; parameters: dose 10 mg/kg, route oral; settings: in vivo
Mus musculus [2] = test: Dose normalized AUC (0 to t) in C57BL/6 mouse at 10 mg/kg, po; format: ADME, organism-based; parameters: dose 10 mg/kg, route oral; settings: in vivo

Row | AUC/dose (Mus musculus [1]) [ng·h/mL/mg/kg] | AUCt/dose (Mus musculus [2]) [ng·h/mL/mg/kg] | Structure (SMILES)
1 | 634 | – | Cc1cccnc1CN1CCC2(CC1)CCN(c1ccc(-c3ccc(C(=O)O)cc3)cc1)C2=O
2 | – | 22.6 | Cc1cc(CCC(=O)O)cnc1CN1CCC2(CC1)CCN(c1ccc(-c3ccccc3)cc1)C2=O
